Measurements from patent US12251379B2, “Methods of inhibiting formation of alpha synuclein aggregates” (THE REGENTS OF THE UNIVERSITY OF CALIFORNIA, priority 2018, dated 2025).

Tests used:
[1] = pH 7.4; cited from earlier work
[2] = PTZ induced seizure model; Example 52 and FIG. 7 of WO 2015/148954; cited from earlier work
[3] = test system: MPTP-induced neurotoxicity in the mouse SN; conditions: cited from earlier work
sEH = sEH (Homo sapiens (Human), UniProt P34913); conditions: cited from earlier work
[4] = test system: MPTP-induced neurotoxicity in the striatum and SN; assay: MPTP-induced mouse model of PD: immunohistochemistry of DAT and TH; conditions: MPTP 10, 15, or 20 mg/kg ×3 IP, 2-h intervals; 7 days after injection
[5] = test system: eicosanoids metabolites in the striatum; assay: Oxylipin profiling of striatum from MPTP-treated mice; format: in vivo, mouse; conditions: MPTP 10 mg/kg×3 IP, 7 days after injection; mean +/− SEM
Protocol: Oxylipin profiling. […] Striatum was dissected from brain, and the samples were stored at −80° C. before assay. Measurement of eicosanoids was performed using the previous method (59).

[6] = test system: ER stress, oxidative stress, sEH and α-synuclein proteins in the mouse striatum; assay: Western blot analysis of mouse striatum after MPTP; format: in vivo
Protocol: Western blot analysis of mouse brain samples. Western blot analysis was performed as reported previously (53,56). Mice were killed by cervical dislocation and brains were rapidly removed from the skull, and the striatum of mice were dissected on ice. The tissue samples were homogenized in Laemmli lysis buffer. […] Proteins were transferred onto polyvinylidenedifluoride (PVDF) membranes using a Trans Blot Mini Cell (Bio-Rad). For immunodetection, the blots were blocked with 2% BSA in TBST (TBS+0.1% Tween-20) for 1 h at room temperature (RT), and kept with primary antibodies overnight at 4° C. […] After final three washes with TBST, bands were detected using enhanced chemiluminescence (ECL) plus the Western Blotting Detection system (GE Healthcare Bioscience). Images were captured with a ChemDoc imaging system (Bio-Rad), and the immunoreactive bands were analysis by Image Lab software.

Chain of sEH (P34913 whole entry): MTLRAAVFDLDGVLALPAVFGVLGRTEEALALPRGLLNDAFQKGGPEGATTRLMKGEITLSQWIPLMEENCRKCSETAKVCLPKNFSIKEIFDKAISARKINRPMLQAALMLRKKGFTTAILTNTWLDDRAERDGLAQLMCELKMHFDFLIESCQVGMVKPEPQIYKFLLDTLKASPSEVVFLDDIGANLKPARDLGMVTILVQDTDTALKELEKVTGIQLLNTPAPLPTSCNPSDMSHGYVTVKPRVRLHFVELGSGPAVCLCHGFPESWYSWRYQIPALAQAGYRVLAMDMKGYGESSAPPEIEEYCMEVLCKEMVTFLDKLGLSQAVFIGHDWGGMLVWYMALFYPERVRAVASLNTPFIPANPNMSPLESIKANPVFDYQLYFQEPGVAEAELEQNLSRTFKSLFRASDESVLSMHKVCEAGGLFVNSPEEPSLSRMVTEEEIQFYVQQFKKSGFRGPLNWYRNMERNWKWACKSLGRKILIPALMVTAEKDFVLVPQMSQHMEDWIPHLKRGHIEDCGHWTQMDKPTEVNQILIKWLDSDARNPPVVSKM

CC[C@H](C)C(=O)N1CCC(NC(=O)Nc2ccc(OC(F)(F)F)c(F)c2)CC1 [compound 26]
w.s. (water solubility) [1]: 1 µM

O=C(Nc1ccc(OC(F)(F)F)c(F)c1)NC1CCN(C(=O)C2CCOCC2)CC1 [Compound 29, 1-(3-fluoro-4-(trifluoromethoxy)phenyl)-3-(1-(tetrahydro-2H-pyran-4-carbo-nyl)piperidin-4-yl)urea]
crossing of the blood-brain barrier [2]: cross the blood-brain barrier

O=C(O)CCCCCCCCCCCNC(=O)NC12CC3CC(CC(C3)C1)C2 [AUDA, 12-(3-Adamantan-1-yl-ureido)dodecanoic acid]
MPTP-induced neurotoxicity, posttreatment ([3]; posttreatment): did not attenuate
MPTP-induced loss of TH-positive cells in the mouse SN, pretreatment ([3]; pretreatment): attenuated

CCCCCCCCCCCCNC(=O)NC12CC3CC(CC(C3)C1)C2 [ADU, N-Adamantyl-N′-dodecyl urea]
activity on sEH (sEH): particularly high activity

CN1CC=C(c2ccccc2)CC1 [MPTP, 1-methyl-4-phenyl-1,2,3,6-tetrahydropyridine]
DAT and TH density in the striatum and TH-positive cell number in the SN compared with control mice [4]: significant reductions
Level of 5(6)-EpETrE in the striatum [5]: 544.908 ± 19.111
Level of 6-keto-PGF1a in the striatum [5]: 20.015 ± 1.352
Level of 8(9)-EpETrE in the striatum [5]: 19.048 ± 1.310
Level of 9(10)-EpOME in the striatum [5]: 6.641 ± 0.431
Level of 9,10,13-TriHOME in the striatum [5]: 33.635 ± 2.452
Level of 9,10-DiHOME in the striatum [5]: 1.346 ± 0.158
Level of 9,12,13-TriHOME in the striatum [5]: 59.487 ± 4.168
Level of 9-HODE in the striatum [5]: 41.360 ± 3.045
Level of 9-oxo-ODE in the striatum [5]: 46.977 ± 5.160
Level of 10(11)-EpDPE in the striatum [5]: 9.530 ± 0.829
Level of 11(12)-EpETrE in the striatum [5]: 61.583 ± 4.605
Level of 11-HETE in the striatum [5]: 114.056 ± 5.188
Level of 12(13)-EpOME in the striatum [5]: 7.073 ± 0.689
Level of 12,13-DIHOME in the striatum [5]: 8.348 ± 1.710
Level of 12-HETE in the striatum [5]: 136.621 ± 26.845
Level of 13-HODE in the striatum [5]: 58.399 ± 5.240
Level of 14(15)-EpETrE in the striatum [5]: 77.976 ± 11.479
Level of 15,16-DiHODE in the striatum [5]: 3.667 ± 0.609
Level of 15-HETE in the striatum [5]: 129.113 ± 6.703
Level of 19,20-DiHDPE in the striatum [5]: 5.310 ± 0.523
Level of EKODE in the striatum [5]: 23.007 ± 4.170
Level of PGD2 in the striatum [5]: 127.452 ± 4.968
Level of PGE2 in the striatum [5]: 13.830 ± 1.069
Level of PGF2a in the striatum [5]: 160.704 ± 7.212
Level of TXB2 in the striatum [5]: 98.406 ± 4.740
phosphorylated α-synuclein/α-synuclein ratio in the striatum compared with control mice ([6]; MPTP 10 mg/kg×3): significant increase
expression of GSH, iNOS, and SOD in the striatum ([6]; MPTP 10 mg/kg×3, 7 days after injection): alterations
sEH protein in the striatum compared with control mice ([6]; MPTP 10 mg/kg×3, three or 7 days after injections): significant increase
